Test: molar heat capacity at constant pressure; xn = mol fraction of the nth substance listed
Conditions: 101.3 kPa, Liquid, Large sample (1 g) DSC

CCCCn1cc[n+](C)c1.[Br-] [1-butyl-3-methylimidazolium bromide] + O
molar heat capacity at constant pressure [J/K/mol]
Conditions	x1 = 0.1	x1 = 0.2	x1 = 0.3	x1 = 0.4	x1 = 0.5	x1 = 0.6	x1 = 1
303.2 K	102.2	123.4	144.5	165	186.7	209.6	–
308.2 K	102.5	124.1	145.4	166.1	188	211.2	–
313.2 K	103	124.9	146.3	167.1	189.2	212.9	–
318.2 K	103.5	125.8	147.2	168.1	190.7	214.5	–
323.2 K	104	126.6	148.2	169.2	191.8	216.2	–
328.2 K	104.5	127.5	149.2	170.4	193.3	217.9	–
333.2 K	104.8	128.3	150.1	171.6	194.6	219.5	–
338.2 K	105.4	129.2	151.1	172.9	196.1	221.3	–
343.2 K	105.8	130	152.1	173.9	197.3	223.1	–
348.2 K	106.3	131.1	153.1	175.2	198.6	224.9	–
353.2 K	106.8	131.9	154.1	176.2	200	226.5	334.8
358.2 K	–	–	–	–	–	–	338.1
363.2 K	–	–	–	–	–	–	341.1
368.2 K	–	–	–	–	–	–	344.6
373.2 K	–	–	–	–	–	–	347.5
378.2 K	–	–	–	–	–	–	350.6
383.2 K	–	–	–	–	–	–	354.1
388.2 K	–	–	–	–	–	–	356.7
393.2 K	–	–	–	–	–	–	359.9
398.2 K	–	–	–	–	–	–	363.4
403.2 K	–	–	–	–	–	–	366.4
